# Read-outs that look alike come from different tables or passages of the source.
# Key:
# [1] = system: tryptamine-induced stereotypies and hind limb paralysis; experiment: Tryptamine potentiation test; format: in vivo, mice; conditions: for ED50: Mus musculus, po
# Protocol: […] […] (60 Mg/kg of tryptamine alone causes this syndrome but it lasts for less than a minute, usually only a few seconds.) The data were analyzed quantally and ED50's calculated.
# mouse brain MAO = molecular target: T1, mouse brain MAO (Mus musculus, UniProt Q64133); conditions: for % INHIBITION: substrate 5 HT
# T1 sequence (Q64133 1-526): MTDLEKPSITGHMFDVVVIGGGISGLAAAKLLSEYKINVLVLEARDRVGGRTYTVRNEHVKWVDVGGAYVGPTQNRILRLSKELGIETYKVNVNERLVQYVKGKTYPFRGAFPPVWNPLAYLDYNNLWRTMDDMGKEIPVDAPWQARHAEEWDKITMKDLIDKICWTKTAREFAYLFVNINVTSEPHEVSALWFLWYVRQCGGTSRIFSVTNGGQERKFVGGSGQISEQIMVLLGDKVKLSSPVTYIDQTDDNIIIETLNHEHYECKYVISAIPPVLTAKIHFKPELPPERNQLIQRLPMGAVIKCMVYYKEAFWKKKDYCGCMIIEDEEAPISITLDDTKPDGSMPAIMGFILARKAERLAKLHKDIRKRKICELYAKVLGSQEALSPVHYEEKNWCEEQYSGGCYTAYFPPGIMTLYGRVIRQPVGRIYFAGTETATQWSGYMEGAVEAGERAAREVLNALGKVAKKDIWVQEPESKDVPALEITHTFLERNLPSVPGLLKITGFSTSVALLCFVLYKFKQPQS
# in vivo = conditions: mouse, po
smiles,measurement,setting,value
"CCc1c(C)[nH]c2c1C(=O)C(CN1CCOCC1)CC2 (centres unmarked) [Molindone, 3-ethyl-6,7-dihydro-2-methyl-5-(morpholinomethyl)indol-4-(5H)-one]",HIND LIMB PARALYSIS (mice responding),"[1]; 10. mg/kg p.o., 1 Hr., N=10",3
same,HEAD TWITCH (mice responding),"[1]; 10. mg/kg p.o., 2 Hrs., N=10",2
same,HIND LIMB PARALYSIS (mice responding),"[1]; 10. mg/kg p.o., 2 Hrs., N=10",8
same,HEAD TWITCH (mice responding),"[1]; 10. mg/kg p.o., 4 Hrs., N=20",1
same,HIND LIMB PARALYSIS (mice responding),"[1]; 10. mg/kg p.o., 4 Hrs., N=20",13
same,HEAD TWITCH (mice responding),"[1]; 10. mg/kg p.o., 6 Hrs., N=10",0
same,HIND LIMB PARALYSIS (mice responding),"[1]; 10. mg/kg p.o., 6 Hrs., N=10",7
same,HEAD TWITCH (mice responding),"[1]; 10. mg/kg p.o., 24 Hrs., N=10",0
same,HIND LIMB PARALYSIS (mice responding),"[1]; 10. mg/kg p.o., 24 Hrs., N=10",0
same,HEAD TWITCH (mice responding),"[1]; 20. mg/kg p.o., 1 Hr., N=10",3
same,HIND LIMB PARALYSIS (mice responding),"[1]; 20. mg/kg p.o., 1 Hr., N=10",9
same,HEAD TWITCH (mice responding),"[1]; 20. mg/kg p.o., 2 Hrs., N=10",3
same,HIND LIMB PARALYSIS (mice responding),"[1]; 20. mg/kg p.o., 2 Hrs., N=10",10
same,HEAD TWITCH (mice responding),"[1]; 20. mg/kg p.o., 4 Hrs., N=20",17
same,HIND LIMB PARALYSIS (mice responding),"[1]; 20. mg/kg p.o., 4 Hrs., N=20",20
same,HEAD TWITCH (mice responding),"[1]; 20. mg/kg p.o., 6 Hrs., N=10",9
same,HIND LIMB PARALYSIS (mice responding),"[1]; 20. mg/kg p.o., 6 Hrs., N=10",10
same,HEAD TWITCH (mice responding),"[1]; 20. mg/kg p.o., 24 Hrs., N=10",0
same,HIND LIMB PARALYSIS (mice responding),"[1]; 20. mg/kg p.o., 24 Hrs., N=10",0
same,HEAD TWITCH (mice responding),"[1]; 40. mg/kg p.o., 1 Hr., N=10",5
same,HIND LIMB PARALYSIS (mice responding),"[1]; 40. mg/kg p.o., 1 Hr., N=10",10
same,HEAD TWITCH (mice responding),"[1]; 40. mg/kg p.o., 2 Hrs., N=10",5
same,HIND LIMB PARALYSIS (mice responding),"[1]; 40. mg/kg p.o., 2 Hrs., N=10",10
same,HEAD TWITCH (mice responding),"[1]; 40. mg/kg p.o., 4 Hrs., N=20",19
same,HIND LIMB PARALYSIS (mice responding),"[1]; 40. mg/kg p.o., 4 Hrs., N=20",20
same,HEAD TWITCH (mice responding),"[1]; 40. mg/kg p.o., 6 Hrs., N=10",9
same,HIND LIMB PARALYSIS (mice responding),"[1]; 40. mg/kg p.o., 6 Hrs., N=10",10
same,HEAD TWITCH (mice responding),"[1]; 40. mg/kg p.o., 24 Hrs., N=10",0
same,HIND LIMB PARALYSIS (mice responding),"[1]; 40. mg/kg p.o., 24 Hrs., N=10",0
same,HEAD TWITCH (mice responding),"[1]; 80. mg/kg p.o., 1 Hr., N=10",0
same,HIND LIMB PARALYSIS (mice responding),"[1]; 80. mg/kg p.o., 1 Hr., N=10",4
same,HEAD TWITCH (mice responding),"[1]; 80. mg/kg p.o., 2 Hrs., N=10",1
same,HIND LIMB PARALYSIS (mice responding),"[1]; 80. mg/kg p.o., 2 Hrs., N=10",4
same,HEAD TWITCH (mice responding),"[1]; 80. mg/kg p.o., 4 Hrs., N=10",3
same,HIND LIMB PARALYSIS (mice responding),"[1]; 80. mg/kg p.o., 4 Hrs., N=10",6
same,HEAD TWITCH (mice responding),"[1]; 80. mg/kg p.o., 6 Hrs., N=10",6
same,HIND LIMB PARALYSIS (mice responding),"[1]; 80. mg/kg p.o., 6 Hrs., N=10",10
same,HEAD TWITCH (mice responding),"[1]; 80. mg/kg p.o., 24 Hrs., N=10",0
same,HIND LIMB PARALYSIS (mice responding),"[1]; 80. mg/kg p.o., 24 Hrs., N=10",0
same,HEAD TWITCH (mice responding),"[1]; 160. mg/kg p.o., 1 Hr., N=10",0
same,HIND LIMB PARALYSIS (mice responding),"[1]; 160. mg/kg p.o., 1 Hr., N=10",1
same,HEAD TWITCH (mice responding),"[1]; 160. mg/kg p.o., 2 Hrs., N=10",0
same,HIND LIMB PARALYSIS (mice responding),"[1]; 160. mg/kg p.o., 2 Hrs., N=10",4
same,HEAD TWITCH (mice responding),"[1]; 160. mg/kg p.o., 4 Hrs., N=10",0
same,HIND LIMB PARALYSIS (mice responding),"[1]; 160. mg/kg p.o., 4 Hrs., N=10",2
same,HEAD TWITCH (mice responding),"[1]; 160. mg/kg p.o., 6 Hrs., N=10",0
same,HIND LIMB PARALYSIS (mice responding),"[1]; 160. mg/kg p.o., 6 Hrs., N=10",4
same,HEAD TWITCH (mice responding),"[1]; 160. mg/kg p.o., 24 Hrs., N=10",2
same,HIND LIMB PARALYSIS (mice responding),"[1]; 160. mg/kg p.o., 24 Hrs., N=10",2
same,ED50,"[1]; 1 Hr., read-out: ED50, HEAD TWITCH",40 mg/kg
same,ED50,"[1]; 1 Hr., read-out: ED50, HIND LIMB PARALYSIS",13 mg/kg
same,ED50,"[1]; 2 Hrs., read-out: ED50, HEAD TWITCH",40 mg/kg
same,ED50,"[1]; 2 Hrs., read-out: ED50, HIND LIMB PARALYSIS",< 10 mg/kg
same,ED50,"[1]; 4 Hrs., read-out: ED50, HEAD TWITCH",16.7 mg/kg
same,ED50,"[1]; 4 Hrs., read-out: ED50, HIND LIMB PARALYSIS",8.6 mg/kg
same,ED50,"[1]; 6 Hrs., read-out: ED50, HEAD TWITCH",15 mg/kg
same,ED50,"[1]; 6 Hrs., read-out: ED50, HIND LIMB PARALYSIS",< 10 mg/kg
same,ED50,"[1]; 24 Hrs., read-out: ED50, HEAD TWITCH",> 160 mg/kg
same,ED50,"[1]; 24 Hrs., read-out: ED50, HIND LIMB PARALYSIS",> 160 mg/kg
same,"peak time, head twitch","[1]; oral, tryptamine potentiation",6 h
same,"peak time, hind limb paralysis","[1]; oral, tryptamine potentiation",4 h
same,Effect on the action of tryptamine,"[1]; oral, at higher doses the potentiation disappears",potentiates the action of tryptamine in a dose-related manner
same,MAO inhibition (in words),mouse brain MAO; at the high concentration of 1×10^-3 M,virtually inactive
same,% INHIBITION,mouse brain MAO; final conc. 10^-3 m/l,14%
same,% INHIBITION,mouse brain MAO; final conc. 10^-4 m/l,1%
same,% INHIBITION,mouse brain MAO; final conc. 10^-5 m/l,1%
same,% INHIBITION,mouse brain MAO; final conc. 10^-6 m/l,0%
same,LD50 at 24 h,in vivo,440 mg/kg
